Patent publication US20240408169A1 (priority 2023, published 2024)
*1 amine or outer side, *2 acyl side, *3 side chain or, on linkers, in order; H or OH if unused. Where a SMILES comes first, the peptide text is derived from it. Bridges are numbered along the chain shown (N, C = ends). [ ]: non-standard residue; d: D form. The star is where a group is joined. NMePhe(2-(4-MorPh),5-Cl) = CN[C@@H](Cc1cc(Cl)ccc1-c1ccc(N2CCOCC2)cc1)C(=O)O; NMeAla(5-Cl-2-cPrO-3-pyridyl) = CN[C@@H](Cc1cc(Cl)cnc1OC1CC1)C(=O)O; X134 = CN([C@@H](Cc1cc(Cl)ccc1-c1cnc2[nH]c(O)cc2c1)C(=O)[*:2])[*:1]; X141 = CN([C@@H](Cc1cc(Cl)ccc1C1=CCN(S(C)(=O)=O)C1)C(=O)[*:2])[*:1]; X130 = CN([C@@H](Cc1cc(F)ccc1-c1ccn(S(C)(=O)=O)c1)C(=O)[*:2])[*:1]; NMehhhLys(Me) = CN([C@@H](CCCCCCCN(C)[*:3])C(=O)[*:2])[*:1]; NMe(hhhLys) = CN([C@@H](CCCCCCCN[*:3])C(=O)[*:2])[*:1]; X132 = CN([C@@H](Cc1cc(Cl)cc2ccoc12)C(=O)[*:2])[*:1]; Cyclobutanecarbonyl(1-CF3) = O=C(C1(C(F)(F)F)CCC1)*; cBuCO(3,3-F2-1-CF3) = O=C(C1(C(F)(F)F)CC(F)(F)C1)*; X133 = Cc1ncc(Cl)cc1C[C@@H](C(=O)[*:2])N(C)[*:1]; Pro(trans-4-F) = O=C(O)[C@@H]1C[C@@H](F)CN1; X201 = O=C(C1(C(F)F)CC(F)(F)C1)*; Gly(cPr) = N[C@H](C(=O)O)C1CC1

Tests used:
[1] = biological target: T1, CyclinA2/CDK2 (Homo sapiens, UniProt P20248); test: Fluorescence Polarization (FP) competitive binding assay, Cyclin A2/Cdk2; conditions: 8 nM Cyclin A2/Cdk2, 2 nM FAM probe; average of 2-3 independent experiments; read-out: Cyclin A FP IC50;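 also: plates equilibrated two hours at room temperature before polarization reading, IC50 fitted from eight-concentration compound titration curves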
T1 construct: purchased CRELUX Protein Services

[2] = biological target: T2, CyclinB1/CDK1 (Homo sapiens, UniProt P14635); test: Fluorescence Polarization (FP) competitive binding assay, Cyclin B1/Cdk1; conditions: 10 nM Cyclin B1/Cdk1, 2 nM FAM probe; average of 2-3 independent experiments; read-out: Cyclin B FP IC50;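 also: fluorescence polarization read after equilibration at room temperature, with IC50 taken from serially diluted dose-response curves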
T2 construct: purchased Eurofins, discovery 14-450

[3] = biological target: T3, CyclinE1/CDK2 (Homo sapiens, UniProt P24864); test: Fluorescence Polarization (FP) competitive binding assay, Cyclin E1/Cdk2; conditions: 10 nM Cyclin E1/Cdk2, 2 nM FAM probe; average of 2-3 independent experiments; read-out: Cyclin E FP IC50;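 also: readings taken after two-hour equilibration at room temperature in HEPES buffer with NaCl, DTT, NP-40 and BSA, IC50 fitted from eight-concentration serial dilution series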
T3 construct: purchased Eurofins, discovery 14-475

[4] = test system: NCI-H1048 cells; test: MTT proliferation assay, NCI-H1048; format: cell-based; conditions: 5 days compound exposure, 1:3 serial dilution starting at 10 μM;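 also: Dose-response in 96-well plates over 8 or 10 concentration points, with exposure spanning 3-4 cell doublings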
[5] = test system: OVCAR3 cells; test: MTT proliferation assay, OVCAR3; format: cell-based; conditions: 5 days compound exposure, 1:3 serial dilution starting at 10 μM;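 also: compound given as an 8- or 10-point series, one day after plating, with exposure covering roughly 3-4 cell doublings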

Compound	IC50 [1] [nM]	IC50 [2] [nM]	IC50 [3] [nM]	GI50 [4] [nM]	GI50 [5] [nM]
CC(C)C[C@@H]1NC(=O)[C@@H](N(C)C(=O)[C@@H](NC(=O)[C@@H]2C[C@@H](F)CN2C(=O)C2(C(F)(F)F)CCC2)C2CC2)CCCCCCCNC(=O)[C@H](Cc2cc(Cl)cnc2OC2CC2)N(C)C1=O [Example 108] ({Cyclobutanecarbonyl(1-CF3)}-[Pro(trans-4-F)][Gly(cPr)][NMe(hhhLys)]L[NMeAla(5-Cl-2-cPrO-3-pyridyl)]; lactam 3-C)	50	20	180	20	30
CC(C)C[C@@H]1NC(=O)[C@@H](N(C)C(=O)[C@@H](NC(=O)[C@@H]2C[C@@H](F)CN2C(=O)C2(C(F)(F)F)CC(F)(F)C2)C2CC2)CCCCCCCN(C)C(=O)[C@H](Cc2cc(Cl)cc3ccoc23)N(C)C1=O [Example 394] ({cBuCO(3,3-F2-1-CF3)}-[Pro(trans-4-F)][Gly(cPr)][NMehhhLys(Me)]L[X132]; lactam 3-C)	150	20	500	90	50
CC(C)C[C@@H]1NC(=O)[C@@H](N(C)C(=O)[C@@H](NC(=O)[C@@H]2C[C@@H](F)CN2C(=O)C2(C(F)(F)F)CC(F)(F)C2)C2CC2)CCCCCCCN(C)C(=O)[C@H](Cc2cc(Cl)ccc2C2=CCN(S(C)(=O)=O)C2)N(C)C1=O [Example 309] ({cBuCO(3,3-F2-1-CF3)}-[Pro(trans-4-F)][Gly(cPr)][NMehhhLys(Me)]L[X141]; lactam 3-C)	20	20	930	10	10
CC(C)C[C@@H]1NC(=O)[C@@H](N(C)C(=O)[C@@H](NC(=O)[C@@H]2C[C@@H](F)CN2C(=O)C2(C(F)(F)F)CC(F)(F)C2)C2CC2)CCCCCCCN(C)C(=O)[C@H](Cc2cc(Cl)ccc2-c2cnc3[nH]c(O)cc3c2)N(C)C1=O [Example 272] ({cBuCO(3,3-F2-1-CF3)}-[Pro(trans-4-F)][Gly(cPr)][NMehhhLys(Me)]L[X134]; lactam 3-C)	50	20	1600	90	430
CC[C@H](NC(=O)[C@@H]1C[C@@H](F)CN1C(=O)C1(C(F)(F)F)CC1)C(=O)N[C@H]1CC=CCCCCNC(=O)[C@H](Cc2cc(Cl)ccc2Cl)N(C)C(=O)[C@H](CC(C)C)NC1=O [Example 2]	110	20	100	380	410
CC(C)C[C@@H]1NC(=O)[C@@H](N(C)C(=O)[C@@H](NC(=O)[C@@H]2C[C@@H](F)CN2C(=O)C2(C(F)(F)F)CC(F)(F)C2)C2CC2)CCCCCCCN(C)C(=O)[C@H](Cc2cc(F)ccc2-c2ccn(S(C)(=O)=O)c2)N(C)C1=O [Example 306] ({cBuCO(3,3-F2-1-CF3)}-[Pro(trans-4-F)][Gly(cPr)][NMehhhLys(Me)]L[X130]; lactam 3-C)	20	20	200	10	10
CC(C)C[C@@H]1NC(=O)[C@@H](N(C)C(=O)[C@@H](NC(=O)[C@@H]2C[C@@H](F)CN2C(=O)C2(C(F)F)CC(F)(F)C2)C2CC2)CCCCCCCN(C)C(=O)[C@H](Cc2cc(Cl)ccc2-c2ccc(N3CCOCC3)cc2)N(C)C1=O [Example 350] (X201-[Pro(trans-4-F)][Gly(cPr)][NMehhhLys(Me)]L[NMePhe(2-(4-MorPh),5-Cl)]; lactam 3-C)	20	20	880	10	10
Cc1ncc(Cl)cc1C[C@H]1C(=O)N(C)CCCCCCC[C@H](N(C)C(=O)[C@@H](NC(=O)[C@@H]2C[C@@H](F)CN2C(=O)C2(C(F)(F)F)CC(F)(F)C2)C2CC2)C(=O)N[C@@H](CC(C)C)C(=O)N1C [Example 322] ({cBuCO(3,3-F2-1-CF3)}-[Pro(trans-4-F)][Gly(cPr)][NMehhhLys(Me)]L[X133]; lactam 3-C)	80	20	530	30	60
CC(C)C[C@@H]1NC(=O)[C@@H](N(C)C(=O)[C@@H](NC(=O)[C@@H]2C[C@@H](F)CN2C(=O)C2(C(F)(F)F)CC(F)(F)C2)C2CC2)C/C=C\CCCCN(C)C(=O)[C@H](Cc2cc(Cl)ccc2-c2cnn(S(C)(=O)=O)c2)N(C)C1=O [Example 298]	50	20	440	10	20
CC[C@H](NC(=O)[C@@H]1C[C@@H](F)CN1C(=O)C1(C(F)(F)F)CC1)C(=O)N[C@H]1CC=CCCCCN(C)C(=O)[C@H](Cc2cc(Cl)ccc2Cl)N(C)C(=O)[C@H](CC(C)C)NC1=O [Example 13]	100	20	100	70	240
